Source: patent US20130122541A1, “MICROORGANISM PRODUCTION OF HIGH-VALUE CHEMICAL PRODUCTS, AND RELATED COMPOSITIONS, METHODS AND SYSTEMS” (The Regents of the University of Colorado, priority 2010, published 2013)
In brackets after ≈: the same amount, converted by molar mass. Like-named read-outs stand apart in the source and are kept apart here.

Legend:
[1] = system: E. coli K12+pSMART-LC-Kan-cynTS; assay type: cell-based; conditions: Escherichia coli, 24 h, read-out: Minimum inhibitory concentration (MIC) of 3-HP for E. coli K12+pSMART-LC-Kan-cynTS in M9 minimal media
Protocol: Overnight cultures of strains were grown in 5 ml LB (with antibiotic where appropriate) at 37° C. in a shaking incubator. A 1 v/v % was used to inoculate 10 mL of M9 minimal media. After the cells reached mid-exponential phase, the culture was diluted to an OD600 of 0.200. The cells were further diluted 1:20 and a 10 ul aliquot was used to inoculate each well (˜10^4 cells per well). […] The MIC endpoint is the lowest concentration of compound at which there was no visible growth.
Purified plasmid was retransformed into E. coli K12 by standard techniques and MIC measured as described in Example 37.

[2] = system: wild-type E. coli BW25113; test: Growth response to 3-HP (toleragram, OD600, doublings over 24 h), E. coli aerobic; assay type: cell-based; conditions: aerobic condition, FIG. 15B
Protocol: Overnight cultures of wild-type E. coli BW25113 were grown in triplicate in 5 mL standard LB medium. 100 uL of overnight cultures were used to inoculate triplicate 5 mL samples of M9 minimal medium+3HP, containing 47.7 mM Na2HPO4, 22 mM KH2PO4, 8.6 mM NaCl, 18.7 mM NH4Cl, 2 mM MgSO4, 0.1 mM CaCl2, and 0.4% glucose, with 3HP concentrations ranging from 0-50 g/L. Starting OD600 ranged from 0.02-0.08. Cultures were incubated at 37 C for about 24 hours, and OD600 was recorded every 1-2 hours for the first 8 hours with a final OD600 recorded at about 24 hours. Maximum specific growth rates (μmax) were calculated by determining the optimal fit of exponential trend lines with OD data for the evaluation period. Specific changes in OD600 over approximately 24 hours (Δ24 hrOD600) were calculated as the difference in t=24 hr and t=0 optical density, Δ24hOD600=(ODt=24)−(ODt=0). Specific number of doublings (Nd) were calculated by solving for N in the equation 2^N=(ODt=24)/(ODt=0).

C. necator (R. eutropha) = test: MIC evaluation of 3-HP, C. necator (R. eutropha) aerobic, FGN media, 96 well-plate, 24 h (Common Methods); assay type: cell-based; conditions: for % Increase Over Control: supplements none, vs control, aerobic
Protocol: For MIC evaluations, the final results are expressed in chemical agent concentrations determined by analysis of the stock solution by HPLC (i.e., see Subsection IIIb). The minimum inhibitory concentration (MIC) was determined aerobically in a 96 well-plate format. […] Media supplements were added according to levels reported in Supplements Table, where specified. Overnight cultures of strains were grown in triplicate in 5 mL LB (with antibiotic where appropriate). […] The cells were further diluted 1:50 and a 10 μL aliquot was used to inoculate each well of a 96 well plate (˜10^4 cells per well) to total volume of 100 uL. […] Plates were incubated for 24 hours at 30 C.

[3] = system: Yeast strains (S288C background); test: microbe, parasite or virus in culture; assay type: cell-based, Saccharomyces cerevisiae; conditions: for MIC: Saccharomyces cerevisiae
Protocol: The minimum inhibitory concentration (MIC) was determined aerobically in a 96 well-plate format. […] Media supplements were added according to levels reported in the Supplements Table, where specified. Overnight cultures of strains were grown in triplicate in 5 mL SD media with vitamins (Methods in Enzymology vol. 350, page 17 (2002)). A 1% (v/v) inoculum was introduced into a 5 ml culture of SD minimal media without vitamins. After the cells reached mid-exponential phase, the culture was diluted to an OD600 of 0.200. The cells were further diluted 1:5 and a 10 μL aliquot was used to inoculate each well of a 96 well plate (˜10^4 cells per well) to total volume of 100 uL. […] Plates were incubated for 72 hours at 30 C.

[4] = system: Yeast strains (S288C background); test: microbe, parasite or virus in culture; assay type: cell-based, Saccharomyces cerevisiae; conditions: for MIC: Saccharomyces cerevisiae; remark: listed apart in the source
Protocol: The minimum inhibitory concentration (MIC) was determined anaerobically in a 96 well-plate format. […] A 1% (v/v) inoculum was introduced into a 5 ml culture of SD minimal media without vitamins. After the cells reached mid-exponential phase, the culture was diluted to an OD600 of 0.200. The cells were further diluted 1:5 and a 10 μL aliquot was used to inoculate each well of a 96 well plate (˜10^4 cells per well) to total volume of 100 uL. […] Plates were incubated for 72 hours at 30 C. […] Plates were sealed in biobag anaerobic chambers that contained gas generators for anaerobic conditions and incubated for 72 hours at 30 C.

For `O=C(O)CCO` [3-HP, 3-hydroxypropionic acid], the MIC [1] was 50 mg/mL (≈ 555 mM), the “3-HP concentration at which a dramatic reduction in cell density (OD600) at 24 hours starts” value [2] was 30 g/L and the “% Increase Over Control” value (C. necator (R. eutropha); C. necator DSM 542, EZ Rich media) was 200%. The “% Increase Over Control” value (C. necator (R. eutropha); C. necator DSM 542, FGN media) was 0%, the MIC (C. necator (R. eutropha); read-out: average MIC Assay Result (g/L 3-HP), C. necator DSM428, FGN media, supplements none (control), aerobic) was 15 g/L (≈ 167 mM) and the MIC (C. necator (R. eutropha); read-out: average MIC Assay Result (g/L 3-HP), C. necator DSM 542, EZ Rich media, supplements none, aerobic) was 60 g/L (≈ 666 mM). For the same compound, the MIC (C. necator (R. eutropha); read-out: average MIC Assay Result (g/L 3-HP), C. necator DSM 542, FGN media, supplements none, aerobic) was 15 g/L (≈ 167 mM), the “% Increase Over Control” value ([3]; S288C, SC media vs SD control, aerobic) was 33% and the MIC ([3]; read-out: Average MIC Assay Result (g/L 3-HP), S288C, SC media, supplements none, aerobic) was 60 g/L (≈ 666 mM). It also gave an MIC ([3]; read-out: Average MIC Assay Result (g/L 3-HP), S288C, SD media, supplements none (control), aerobic) of 45 g/L (≈ 500 mM), an MIC ([3]; read-out: MIC Assay Result (g/L 3-HP), strain YX-022 (BY4722, pyes2.1-Aro3 pRS425-ILV6), SD, aerobic) of 60 g/L (≈ 666 mM) and an MIC ([3]; read-out: MIC Assay Result (g/L 3-HP), strain YX-CJR-001 (BY4709, pRS426 EV, control), SD, aerobic) of 40 g/L (≈ 444 mM). The MIC ([3]; read-out: MIC Assay Result (g/L 3-HP), strain YX-CJR-002 (BY4709, pYes2.1-spe3), SD, aerobic) was 50 g/L (≈ 555 mM), the MIC ([3]; read-out: MIC Assay Result (g/L 3-HP), strain YX-CJR-003 (BY4709, pYes2.1-hom2), SD, aerobic) was 47 g/L (≈ 522 mM) and the MIC ([3]; read-out: MIC Assay Result (g/L 3-HP), strain YX-CJR-005 (BY4709, pYes2.1-Met6), SD, aerobic) was 50 g/L (≈ 555 mM). The MIC ([3]; read-out: MIC Assay Result (g/L 3-HP), strain YX-CJR-006 (BY4709, pYes2.1-Ilv2), SD, aerobic) was 57 g/L (≈ 633 mM), the MIC ([3]; read-out: MIC Assay Result (g/L 3-HP), strain YX-CJR-010 (BY4709, pyes2.1-Thr1), SD, aerobic) was 60 g/L (≈ 666 mM) and the MIC ([3]; read-out: MIC Assay Result (g/L 3-HP), strain YX-CJR-014 (BY4709, pyes2.1-arg2), SD, aerobic) was 60 g/L (≈ 666 mM). For the same compound, the MIC ([3]; read-out: MIC Assay Result (g/L 3-HP), strain YX-CJR-017 (BY4709, pyes2.1-Aro7), SD, aerobic) was 70 g/L (≈ 777 mM), the “% Increase Over Control” value ([3]; strain YX-022 (pyes2.1-Aro3 pRS425-ILV6) vs control, aerobic) was 50% and the “% Increase Over Control” value ([3]; strain YX-CJR-002 (pYes2.1-spe3) vs YX-CJR-001, aerobic) was 25%. The “% Increase Over Control” value ([3]; strain YX-CJR-003 (pYes2.1-hom2) vs YX-CJR-001, aerobic) was 17%, the “% Increase Over Control” value ([3]; strain YX-CJR-005 (pYes2.1-Met6) vs YX-CJR-001, aerobic) was 25% and the “% Increase Over Control” value ([3]; strain YX-CJR-006 (pYes2.1-Ilv2) vs YX-CJR-001, aerobic) was 42%. The “% Increase Over Control” value ([3]; strain YX-CJR-010 (pyes2.1-Thr1) vs YX-CJR-001, aerobic) was 50%, the “% Increase Over Control” value ([3]; strain YX-CJR-014 (pyes2.1-arg2) vs YX-CJR-001, aerobic) was 50% and the “% Increase Over Control” value ([3]; strain YX-CJR-017 (pyes2.1-Aro7) vs YX-CJR-001, aerobic) was 75%. For the same compound, the “% Increase Over Control” value ([4]; S288C, SD media, supplements none (control), anaerobic) was 0%, the MIC ([4]; read-out: Average MIC Assay Result (g/L 3-HP), S288C, SD media, supplements none (control), anaerobic) was 38 g/L (≈ 422 mM) and the MIC ([4]; read-out: MIC Assay Result (g/L 3-HP), strain YX-022 (BY4722, pyes2.1-Aro3 pRS425-ILV6), SD, anaerobic) was 50 g/L (≈ 555 mM). It also gave an MIC ([4]; read-out: MIC Assay Result (g/L 3-HP), strain YX-CJR-001 (BY4709, pRS426 EV, control), SD, anaerobic) of 40 g/L (≈ 444 mM), an MIC ([4]; read-out: MIC Assay Result (g/L 3-HP), strain YX-CJR-005 (BY4709, pYes2.1-Met6), SD, anaerobic) of 60 g/L (≈ 666 mM) and an MIC ([4]; read-out: MIC Assay Result (g/L 3-HP), strain YX-CJR-007 (BY4709, pyes2.1-ILV6), SD, anaerobic) of 50 g/L (≈ 555 mM). For the same compound, the MIC ([4]; read-out: MIC Assay Result (g/L 3-HP), strain YX-CJR-008 (BY4709, pyes2.1-ILV1), SD, anaerobic) was 60 g/L (≈ 666 mM), the MIC ([4]; read-out: MIC Assay Result (g/L 3-HP), strain YX-CJR-010 (BY4709, pyes2.1-Thr1), SD, anaerobic) was 50 g/L (≈ 555 mM) and the MIC ([4]; read-out: MIC Assay Result (g/L 3-HP), strain YX-CJR-011 (BY4709, pyes2.1-Ser2), SD, anaerobic) was 50 g/L (≈ 555 mM). The MIC ([4]; read-out: MIC Assay Result (g/L 3-HP), strain YX-CJR-013 (BY4709, pyes2.1-ser3), SD, anaerobic) was 50 g/L (≈ 555 mM), the MIC ([4]; read-out: MIC Assay Result (g/L 3-HP), strain YX-CJR-014 (BY4709, pyes2.1-arg2), SD, anaerobic) was 50 g/L (≈ 555 mM) and the MIC ([4]; read-out: MIC Assay Result (g/L 3-HP), strain YX-CJR-015 (BY4709, pyes2.1-RNR1), SD, anaerobic) was 50 g/L (≈ 555 mM). For the same compound, the MIC ([4]; read-out: MIC Assay Result (g/L 3-HP), strain YX-CJR-016 (BY4709, pyes2.1-Aro3), SD, anaerobic) was 50 g/L (≈ 555 mM), the MIC ([4]; read-out: MIC Assay Result (g/L 3-HP), strain YX-CJR-018 (BY4709, pyes2.1-Tyr1), SD, anaerobic) was 50 g/L (≈ 555 mM) and the MIC ([4]; read-out: MIC Assay Result (g/L 3-HP), strain YX-CJR-021 (BY4709, pYes2.1-Trp1), SD, anaerobic) was 50 g/L (≈ 555 mM). The “% Increase Over Control” value ([4]; strain YX-022 (pyes2.1-Aro3 pRS425-ILV6) vs control, anaerobic) was 25%, the “% Increase Over Control” value ([4]; strain YX-CJR-005 (pYes2.1-Met6) vs YX-CJR-001, anaerobic) was 50% and the “% Increase Over Control” value ([4]; strain YX-CJR-007 (pyes2.1-ILV6) vs YX-CJR-001, anaerobic) was 25%. The “% Increase Over Control” value ([4]; strain YX-CJR-008 (pyes2.1-ILV1) vs YX-CJR-001, anaerobic) was 50%, the “% Increase Over Control” value ([4]; strain YX-CJR-010 (pyes2.1-Thr1) vs YX-CJR-001, anaerobic) was 25% and the “% Increase Over Control” value ([4]; strain YX-CJR-011 (pyes2.1-Ser2) vs YX-CJR-001, anaerobic) was 25%. The “% Increase Over Control” value ([4]; strain YX-CJR-013 (pyes2.1-ser3) vs YX-CJR-001, anaerobic) was 25%, the “% Increase Over Control” value ([4]; strain YX-CJR-014 (pyes2.1-arg2) vs YX-CJR-001, anaerobic) was 25% and the “% Increase Over Control” value ([4]; strain YX-CJR-015 (pyes2.1-RNR1) vs YX-CJR-001, anaerobic) was 25%. For the same compound, the “% Increase Over Control” value ([4]; strain YX-CJR-016 (pyes2.1-Aro3) vs YX-CJR-001, anaerobic) was 25%, the “% Increase Over Control” value ([4]; strain YX-CJR-018 (pyes2.1-Tyr1) vs YX-CJR-001, anaerobic) was 25% and the “% Increase Over Control” value ([4]; strain YX-CJR-021 (pYes2.1-Trp1) vs YX-CJR-001, anaerobic) was 25%.
